# Data from patent US12624018B1, “Inhibitors of RIPK2 and medical uses thereof” (Odyssey Therapeutics, Inc., priority 2022, dated 2026).
# Target: T1, RIPK2 enzyme (Homo sapiens, UniProt O43353)
# T1 construct: purchased Carna 09-128
# Test: RIPK2 inhibition (ADP-Glo Kinase Assay)
# Assay type: biochemical
# Conditions: RIPK2 5 nM, ATP 150 μM, MBP substrate, read-out: RIPK2 IC50
# How it was run: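 Human RIPK2 (5 nM) preincubated with compound 30 min at room temperature in 50 mM HEPES pH 7.5, 10 mM MgCl2, 2 mM DTT, 1 mM EGTA, 0.01% Brij-35, 0.05% BSA; native swine MBP as substrate. ADP formed quantified by ADP-Glo luminescence; percent inhibition relative to DMSO and no-enzyme controls.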
# T1 sequence (O43353 1-299 limits assumed): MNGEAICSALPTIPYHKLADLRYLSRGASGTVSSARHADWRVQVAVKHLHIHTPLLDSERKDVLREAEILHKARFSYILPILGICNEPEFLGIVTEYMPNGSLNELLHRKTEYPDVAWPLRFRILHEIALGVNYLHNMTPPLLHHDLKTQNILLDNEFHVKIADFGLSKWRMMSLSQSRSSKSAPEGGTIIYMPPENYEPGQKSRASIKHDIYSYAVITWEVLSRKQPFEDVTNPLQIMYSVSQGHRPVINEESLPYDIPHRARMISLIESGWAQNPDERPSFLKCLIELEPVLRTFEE
row,IC50 [nM],SMILES
1,< 2.5,"Cc1c(Oc2ccnc3ccc(C(=O)O)cc23)ccc(CC(=O)Nc2cnn(C(C)(C)C)c2)c1F [Compound 333, 4-(4-(2-((1-(tert-butyl)-1H-pyrazol-4-yl)amino)-2-oxoethyl)-3-fluoro-2-methyl-phenoxy) quinoline-6-carboxylic acid]"
2,< 2.5,"Cc1c(Oc2ccnc3ccc(C(N)=O)cc23)ccc(CC(=O)Nc2cnn(C(C)(C)C)c2)c1F [Compound 334, 4-(4-(2-((1-(tert-butyl)-1H-pyrazol-4-yl)amino)-2-oxoethyl)-3-fluoro-2-methyl-phenoxy) quinoline-6-carboxamide]"
3,< 2.5,"CNC(=O)c1ccc2nccc(Oc3ccc(CC(=O)Nc4cnn(C(C)(C)C)c4)c(F)c3C)c2c1 [Compound 335, 4-(4-(2-((1-(tert-butyl)-1H-pyrazol-4-yl)amino)-2-oxoethyl)-3-fluoro-2-methyl-phenoxy)-N-methyl-quinoline-6-carboxamide]"
4,< 2.5,"Cc1c(Oc2ccnc3ccc(C(=O)N(C)C)cc23)ccc(CC(=O)Nc2cnn(C(C)(C)C)c2)c1F [Compound 336, 4-(4-(2-((1-(tert-butyl)-1H-pyrazol-4-yl)amino)-2-oxoethyl)-3-fluoro-2-methyl-phenoxy)-N,N-dimethyl-quinoline-6-carboxamide]"
5,< 2.5,"Cc1c(Oc2ccnc3ccc(C(=O)NCC(F)(F)F)cc23)ccc(CC(=O)Nc2cnn(C(C)(C)C)c2)c1F [Compound 337, 4-(4-(2-((1-(tert-butyl)-1H-pyrazol-4-yl)amino)-2-oxoethyl)-3-fluoro-2-methyl-phenoxy)-N-(2,2,2-trifluoroethyl) quinoline-6-carboxamide]"
6,< 2.5,"CCNC(=O)c1ccc2nccc(Oc3ccc(CC(=O)Nc4cnn(C(C)(C)C)c4)c(F)c3C)c2c1 [Compound 338, 4-(4-(2-((1-(tert-butyl)-1H-pyrazol-4-yl)amino)-2-oxoethyl)-3-fluoro-2-methyl-phenoxy)-N-ethylquinoline-6-carboxamide]"
7,< 2.5,"Cc1c(Oc2ccnc3ccc(C(=O)NCCO)cc23)ccc(CC(=O)Nc2cnn(C(C)(C)C)c2)c1F [Compound 339, 4-(4-(2-((1-(tert-butyl)-1H-pyrazol-4-yl)amino)-2-oxoethyl)-3-fluoro-2-methyl-phenoxy)-N-(2-hydroxyethyl) quinoline-6-carboxamide]"
8,< 2.5,"Cc1c(Oc2ccnc3ccc(C(=O)N(C)CCO)cc23)ccc(CC(=O)Nc2cnn(C(C)(C)C)c2)c1F [Compound 340, 4-(4-(2-((1-(tert-butyl)-1H-pyrazol-4-yl)amino)-2-oxoethyl)-3-fluoro-2-methyl-phenoxy)-N-(2-hydroxyethyl)-N-methyl-quinoline-6-carboxamide]"
9,< 2.5,"Cc1c(Oc2ccnc3ccc(C(=O)N(CCO)CCO)cc23)ccc(CC(=O)Nc2cnn(C(C)(C)C)c2)c1F [Compound 341, 4-(4-(2-((1-(tert-butyl)-1H-pyrazol-4-yl)amino)-2-oxoethyl)-3-fluoro-2-methyl-phenoxy)-N,N-bis(2-hydroxyethyl) quinoline-6-carboxamide]"
10,< 2.5,"COCCNC(=O)c1ccc2nccc(Oc3ccc(CC(=O)Nc4cnn(C(C)(C)C)c4)c(F)c3C)c2c1 [Compound 342, 4-(4-(2-((1-(tert-butyl)-1H-pyrazol-4-yl)amino)-2-oxoethyl)-3-fluoro-2-methyl-phenoxy)-N-(2-methoxyethyl) quinoline-6-carboxamide]"
11,< 2.5,"COCCN(C)C(=O)c1ccc2nccc(Oc3ccc(CC(=O)Nc4cnn(C(C)(C)C)c4)c(F)c3C)c2c1 [Compound 343, 4-(4-(2-((1-(tert-butyl)-1H-pyrazol-4-yl)amino)-2-oxoethyl)-3-fluoro-2-methyl-phenoxy)-N-(2-methoxyethyl)-N-methyl-quinoline-6-carboxamide]"
12,< 2.5,"Cc1c(Oc2ccnc3ccc(C(=O)N4CCC4)cc23)ccc(CC(=O)Nc2cnn(C(C)(C)C)c2)c1F [Compound 344, 2-(4-((6-(azetidine-1-carbonyl)quinolin-4-yl)oxy)-2-fluoro-3-methyl-phenyl)-N-(1-(tert-butyl)-1H-pyrazol-4-yl)acetamide]"
13,< 2.5,"Cc1c(Oc2ccnc3ccc(C(=O)N4CC(O)C4)cc23)ccc(CC(=O)Nc2cnn(C(C)(C)C)c2)c1F [Compound 348, N-(1-(tert-butyl)-1H-pyrazol-4-yl)-2-(2-fluoro-4-((6-(3-hydroxy-azetidine-1-carbonyl)quinolin-4-yl)oxy)-3-methyl-phenyl) acetamide]"
14,< 2.5,"Cc1c(Oc2ccnc3ccc(C(=O)N4CC(N)C4)cc23)ccc(CC(=O)Nc2cnn(C(C)(C)C)c2)c1F [Compound 349, 2-(4-((6-(3-amino-azetidine-1-carbonyl)quinolin-4-yl)oxy)-2-fluoro-3-methyl-phenyl)-N-(1-(tert-butyl)-1H-pyrazol-4-yl)acetamide]"

# Second part, the molecule before the results:
row,SMILES,IC50 [nM]
1,"Cc1cc(CC(=O)Nc2cnn(C(C)(C)C)c2)ccc1Oc1ccnc2ccc(S(=O)(=O)C3CCNCC3)cc12 [Compound 311, N-(1-(tert-butyl)-1H-pyrazol-4-yl)-2-(3-methyl-4-((6-(piperidin-4-ylsulfonyl)quinolin-4-yl)oxy)phenyl)acetamide]",< 2.5
2,"Cc1c(Oc2ccnc3ccc(S(=O)(=O)C4CCNCC4)cc23)ccc(CC(=O)Nc2cnn(C(C)(C)C)c2)c1F [Compound 312, N-(1-(tert-butyl)-1H-pyrazol-4-yl)-2-(2-fluoro-3-methyl-4-((6-(piperidin-4-ylsulfonyl)quinolin-4-yl)oxy)phenyl)acetamide]",< 2.5
3,"Cc1cc(CC(=O)Nc2cnn(C(C)(C)C)c2)c(F)cc1Oc1ccnc2ccc(S(=O)(=O)C3CCNCC3)cc12 [Compound 313, N-(1-(tert-butyl)-1H-pyrazol-4-yl)-2-(2-fluoro-5-methyl-4-((6-(piperidin-4-ylsulfonyl)quinolin-4-yl)oxy)phenyl)acetamide]",< 2.5
4,"Cc1cc(CC(=O)Nc2cnn(C(C)(C)C)c2)ccc1Oc1ccnc2ccc(S(=O)(=O)C3CNC3)cc12 [Compound 314, 2-(4-((6-(azetidin-3-ylsulfonyl)quinolin-4-yl)oxy)-3-methylphenyl)-N-(1-(tert-butyl)-1H-pyrazol-4-yl)acetamide]",< 2.5
5,"Cc1c(Oc2ccnc3ccc(S(=O)(=O)C4CNC4)cc23)ccc(CC(=O)Nc2cnn(C(C)(C)C)c2)c1F [Compound 315, 2-(4-((6-(azetidin-3-ylsulfonyl)quinolin-4-yl)oxy)-2-fluoro-3-methylphenyl)-N-(1-(tert-butyl)-1H-pyrazol-4-yl)acetamide]",< 2.5
6,"Cc1cc(CC(=O)Nc2cnn(C(C)(C)C)c2)c(F)cc1Oc1ccnc2ccc(S(=O)(=O)C3CNC3)cc12 [Compound 316, 2-(4-((6-(azetidin-3-ylsulfonyl)quinolin-4-yl)oxy)-2-fluoro-5-methylphenyl)-N-(1-(tert-butyl)-1H-pyrazol-4-yl)acetamide]",< 2.5
7,"Cc1cc(CC(=O)Nc2cnn(C(C)(C)C)c2)ccc1Oc1ccnc2ccc(N3CCC(F)(F)C3=O)cc12 [Compound 325, N-(1-(tert-butyl)-1H-pyrazol-4-yl)-2-(4-((6-(3,3-difluoro-2-oxopyrrolidin-1-yl)quinolin-4-yl)oxy)-3-methylphenyl) acetamide]",< 2.5
8,"Cc1cc(CC(=O)Nc2cc(C(C)(C)CO)n[nH]2)ccc1Oc1ccnc2ccc(S(C)(=O)=O)cc12 [Compound 328, N-(5-(1-hydroxy-2-methylpropan-2-yl)-1H-pyrazol-3-yl)-2-(3-methyl-4-((6-(methylsulfonyl)quinolin-4-yl)oxy)phenyl)acetamide]",< 2.5
9,"Cc1c(Oc2ccnc3ccc(S(C)(=O)=O)cc23)ccc(CC(=O)Nc2cc(C(C)(C)CO)n[nH]2)c1F [Compound 329, 2-(2-fluoro-3-methyl-4-((6-(methylsulfonyl)quinolin-4-yl)oxy)phenyl)-N-(5-(1-hydroxy-2-methylpropan-2-yl)-1H-pyrazol-3-yl)acetamide]",< 2.5
10,"COC(C)(C)c1cc(NC(=O)Cc2ccc(Oc3ccnc4ccc(S(C)(=O)=O)cc34)c(C)c2)[nH]n1 [Compound 330, N-(5-(2-methoxypropan-2-yl)-1H-pyrazol-3-yl)-2-(3-methyl-4-((6-(methylsulfonyl)quinolin-4-yl)oxy)phenyl)acetamide]",< 2.5
11,"COC(C)(C)c1cc(NC(=O)Cc2ccc(Oc3ccnc4ccc(S(C)(=O)=O)cc34)c(C)c2F)[nH]n1 [Compound 331, 2-(2-fluoro-3-methyl-4-((6-(methylsulfonyl)quinolin-4-yl)oxy)phenyl)-N-(5-(2-methoxypropan-2-yl)-1H-pyrazol-3-yl)acetamide]",< 2.5
12,"Cc1cc(CC(=O)Nc2cnn(C(C)(C)C)c2)ccc1Oc1ccnc2ccc(S(=O)(=O)CC3CNC3)cc12 [Compound 332, 2-(4-((6-((azetidin-3-ylmethyl)sulfonyl)quinolin-4-yl)oxy)-3-methylphenyl)-N-(1-(tert-butyl)-1H-pyrazol-4-yl)acetamide]",< 2.5
13,"Cc1c(Oc2ccnc3ccc(C(=O)N4CC(F)C4)cc23)ccc(CC(=O)Nc2cnn(C(C)(C)C)c2)c1F [Compound 345, N-(1-(tert-butyl)-1H-pyrazol-4-yl)-2-(2-fluoro-4-((6-(3-fluoro-azetidine-1-carbonyl)quinolin-4-yl)oxy)-3-methylphenyl) acetamide]",< 2.5
14,"Cc1c(Oc2ccnc3ccc(C(=O)N4CC(C#N)C4)cc23)ccc(CC(=O)Nc2cnn(C(C)(C)C)c2)c1F [Compound 346, N-(1-(tert-butyl)-1H-pyrazol-4-yl)-2-(4-((6-(3-cyano-azetidine-1-carbonyl)quinolin-4-yl)oxy)-2-fluoro-3-methylphenyl) acetamide]",< 2.5
15,"Cc1c(Oc2ccnc3ccc(C(=O)N4CC5(COC5)C4)cc23)ccc(CC(=O)Nc2cnn(C(C)(C)C)c2)c1F [Compound 347, 2-(4-((6-(2-oxa-6-azaspiro[3.3]heptane-6-carbonyl)quinolin-4-yl)oxy)-2-fluoro-3-methyl-phenyl)-N-(1-(tert-butyl)-1H-pyrazol-4-yl)acetamide]",< 2.5
